Among the data in patent US10174020B2, “Pyridone or pyrimidone derivative, preparation method therefor and application thereof” (Sichuan Haisco Pharmaceutical Co., Ltd., priority 2014, dated 2019) are Ki and EC50 values, retold here.

Test [1] has as its target human blood-coagulation factor XIa (Homo sapiens (Human), UniProt P03951). Description: In vitro inhibitory effect on the enzymatic activity of blood-coagulation factor XIa (S2366 substrate, absorbance at 405 nm). As to conditions: calculated from IC50 at substrate S2366 200 μM, Km=0.2 mM; IC50=Ki(1+[S]/Km). Format: biochemical. How it is done:
The following method was used to test the in vitro inhibitory effect of the compounds of the present invention on the activity of human blood-coagulation factor XIa, expressed by the Inhibition constant Ki.
Solution preparation: reaction buffer: 0.03M HEPES acid, 0.145M NaCl, 0.005 M KCl, 0.1% PEG-8000, pH=7.5;
HEPES 8.499 g, NaCl 8.47 g, KCl 0.3725, PEG 8000 1 g, plus ddH2O 800 ml; the pH was adjusted to […] with HCl, and the volume was metered to 1 L.
S2366 substrate stock solution (2 mM): a volume of substrate […] was dissolved in 23 ml sterile deionized water, aliquoted, and stored at 4° C. in darkness.
S2366 substrate working solution: the stock solution was diluted by 4 folds with the reaction buffer before use.
FXIa working solution: 1 μl FXIa stock solution was added to 10 ml reaction buffer and thoroughly mixed before use.
Method: 15 μl test sample working solution (15 μl DMSO for the control group) and 75 μl FXIa working solution were added to a 96-well plate, and incubated at room temperature for 15 min. Then 60 μl S2366 substrate working solution was added to initiate the reaction. The absorbance at 405 nm for the test compounds was continually assayed once every 3 minutes, and a ΔA-time curve was plotted to calculate the slope as the reaction rate. In accordance with the following equation, IC50 of each test sample when the substrate concentration was 200 μM was calculated with spss 16.0. Inhibition (I %) and Ki of the test samples were calculated in accordance with the follow equations, and the results are shown in Table 1. I %=(V0−Vi)/V0×100 where V0 is the reaction rate in the control wells, and Vi is the reaction rate in the test sample wells; IC50=Ki(1+[S]/Km) where Km=0.2 mM, and [S] is the substrate concentration=200 μM.

For another test, the system named is human plasma. Nature of the test: In vitro assay of the blood coagulation function of human plasma (APTT). Format: biochemical. As to conditions: concentration required to double the plasma APTT, read-out: aPTT EC2×. How it is done: 20 ml blood was taken by venipuncture from the ulnar vein of each of 20 healthy volunteers aged 25 to 35 years who had not taken any medicines within last one week, and was collected in a sodium citrate anticoagulation tube, with the ratio of anticoagulant to blood being 1:9 (v/v). Anticoagulation blood was taken and centrifuged at 200 g for 15 min, the supernatant therefrom was taken and centrifuged at 2000 g for 15 min, and then the supernatant therefrom was collected, well mixed, separated into 4 to 5 ml aliquots, and stored at −80° C. For APTT and PT assays, a plasma sample was taken and rapidly thawed in a 37° C. water bath, and 6 μl test compound working solution was added per 294 μl plasma, while 6 μl DMSO was added for the blank control. The compounds and plasma were well mixed, and assayed in a coagulometer. The concentration of the compounds (EC2×) required to double the plasma APTT was determined with origin 8.5, and the results are shown in Table 2.

Sequence of human blood-coagulation factor XIa (P03951 388-625): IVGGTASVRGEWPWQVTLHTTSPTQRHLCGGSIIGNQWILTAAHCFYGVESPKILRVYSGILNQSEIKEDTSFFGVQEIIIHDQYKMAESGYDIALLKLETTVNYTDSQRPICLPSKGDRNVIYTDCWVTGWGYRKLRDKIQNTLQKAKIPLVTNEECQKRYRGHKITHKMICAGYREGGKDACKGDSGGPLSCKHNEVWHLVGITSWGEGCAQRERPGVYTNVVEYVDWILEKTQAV
Sequence of human blood-coagulation factor XIa (P03951 19-387 partner): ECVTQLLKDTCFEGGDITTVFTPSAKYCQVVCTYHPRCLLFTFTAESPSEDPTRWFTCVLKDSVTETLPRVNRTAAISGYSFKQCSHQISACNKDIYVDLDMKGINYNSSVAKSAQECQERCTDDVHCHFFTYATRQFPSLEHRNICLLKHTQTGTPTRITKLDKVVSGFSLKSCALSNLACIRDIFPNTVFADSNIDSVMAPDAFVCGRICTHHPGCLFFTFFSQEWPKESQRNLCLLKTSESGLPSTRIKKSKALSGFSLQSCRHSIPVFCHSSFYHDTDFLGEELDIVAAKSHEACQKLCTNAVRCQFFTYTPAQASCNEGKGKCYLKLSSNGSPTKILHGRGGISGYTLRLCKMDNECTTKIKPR

For the molecule `O=C(O)c1cc2cc(NC(=O)[C@@H]3CCc4cc(-c5cc(Cl)ccc5-n5cnnn5)cc(=O)n43)ccc2[nH]1` (single isomer, unassigned) [Compound 8-1], the inhibition constant Ki in test [1] was 2 nM. In addition, in the test on human plasma, the EC50 worked out at 2.3 µM. As to `O=C(O)c1cc2cc(NC(=O)[C@H]3CCc4cc(-c5cc(Cl)ccc5-n5cnnn5)cc(=O)n43)ccc2[nH]1` (single isomer, unassigned) [Compound 8-2], in test [1], the Ki was 1030 nM. The same measure, in the same setting: as for `O=C(O)c1ccc(NC(=O)C2CCc3nc(-c4cc(Cl)ccc4-n4cnnn4)cc(=O)n32)cc1` (stereo not shown) [Compound 1, N-(4-carboxyphenyl)-2-(5-chloro-2-(1H-tetrazol-1-yl)phenyl)-4-oxo-4,6,7,8-tetrahydropyrrolo[1,2-a]pyrimidine-6-carboxamide], the figure is 249 nM; as for `O=C(O)c1ccc(NC(=O)C2CCc3cc(-c4cc(Cl)ccc4-n4cnnn4)cc(=O)n32)cc1` (stereo not shown) [Compound 2, N-(4-carboxyphenyl)-7-(5-chloro-2-(1H-tetrazol-1-yl)phenyl)-5-oxo-1,2,3,5-tetrahydroindolizine-3-carboxamide], 68 nM. Regarding `O=C(O)c1cc2cc(NC(=O)C3CCc4cc(-c5cc(Cl)ccc5-n5cnnn5)cc(=O)n43)ccc2[nH]1` (stereo not shown) [Compound 3, N-(2-carboxyindol-5-yl)-7-(5-chloro-2-(1H-tetrazol-1-yl)phenyl)-5-oxo-1,2,3,5-tetrahydroindolizine-3-carboxamide], the Ki in test [1] was 9 nM. In the test on human plasma, the EC50 came out at 6.1 µM. `O=C(O)c1cc2cc(NC(=O)C3CCc4nc(-c5cc(Cl)ccc5-n5cnnn5)cc(=O)n43)ccc2[nH]1` (stereo not shown) [Compound 4, N-(2-carboxyindol-5-yl)-2-(5-chloro-2-(1H-tetrazol-1-yl)phenyl)-4-oxo-4,6,7,8-tetrahydropyrrolo[1,2-a]pyrimidine-6-carboxamide]: the Ki in test [1] was 17 nM. Besides, the EC50 in the test on human plasma came to 9.5 µM. For `O=C(Cn1ccc(-c2cc(Cl)ccc2-n2cnnn2)cc1=O)Nc1ccc(C(=O)O)cc1` [Compound 5], the Ki in test [1] was 146 nM.

As to `O=C(Cn1ccc(-c2cc(Cl)ccc2-n2cnnn2)cc1=O)Nc1ccc2[nH]c(C(=O)O)cc2c1` [Compound 6], the Ki in test [1] was 14 nM. For `O=C(O)c1cc2cc(NC(=O)C(Cc3ccccc3)n3ccc(-c4cc(Cl)ccc4-n4cnnn4)cc3=O)ccc2[nH]1` (stereo not shown) [Compound 9, 5-[[2-[4-[5-chloro-2-(tetrazol-1-yl)phenyl]-2-oxo-1-pyridyl]-3-phenyl-propanoyl]amino]-1H-indole-2-carboxylic Acid], in test [1], the Ki was 4 nM. In the test on human plasma, the EC50 came to 6.4 µM.

Usually Ki stands for a dissociation constant, usually derived from enzyme kinetics or from competition with a known ligand.
